The text below walks through data of ChEMBL document CHEMBL1743341, “Cytochrome p450 enzymes mechanism based inhibitors: common sub-structures and reactivity” (Curr Drug Metab, 2005).

pKi: −log10 of the molar value.

Data set [1] has as its target T1, Cytochrome P450 3A4 (Homo sapiens, UniProt P08684). Nature of the data set: Mechanism based inhibition of human cytochrome P450 3A4 measured by testosterone 6-beta hydroxylation and midazolam 1'-hydroxylation. It is filed as ADME.
Data set [2] has as its target T2, CYP2D6 (Homo sapiens, UniProt P10635). In words: (§1) Mechanism based inhibition of human cytochrome P450 2D6 measured by dextromethorphan O-demethylation. The settings on record: human, probe dextromethorphan.
The target of data set [3] is T3, Cytochrome P450 2D6 (Homo sapiens, UniProt P10635). Described as §1.
Data set [4] addresses T1, Cytochrome P450 3A4. Nature of the data set: Mechanism based inhibition of human cytochrome P450 3A4 measured by midazolam hydroxylase activity. It is filed as ADME.
The target in data set [5] is T1, Cytochrome P450 3A4. In words: Mechanism based inhibition of human cytochrome P450 3A4 measured by 1'-hydroxymidazolam production. It is filed as ADME.
For data set [6], the target named is T2, CYP2D6. In words: (§2) Mechanism based inhibition of human cytochrome P450 2D6 measured by bufurarol hydroxylation using liver microsomes. It is filed as ADME, Microsome. The settings on record: probe bufurarol.
Data set [7] concerns the target T3, Cytochrome P450 2D6. The description is as §2. It is filed as ADME, Microsome.
Another data set concerns the target T4, Cytochrome P450 2A6 (Homo sapiens, UniProt P11509).
T4 sequence (P11509 whole entry): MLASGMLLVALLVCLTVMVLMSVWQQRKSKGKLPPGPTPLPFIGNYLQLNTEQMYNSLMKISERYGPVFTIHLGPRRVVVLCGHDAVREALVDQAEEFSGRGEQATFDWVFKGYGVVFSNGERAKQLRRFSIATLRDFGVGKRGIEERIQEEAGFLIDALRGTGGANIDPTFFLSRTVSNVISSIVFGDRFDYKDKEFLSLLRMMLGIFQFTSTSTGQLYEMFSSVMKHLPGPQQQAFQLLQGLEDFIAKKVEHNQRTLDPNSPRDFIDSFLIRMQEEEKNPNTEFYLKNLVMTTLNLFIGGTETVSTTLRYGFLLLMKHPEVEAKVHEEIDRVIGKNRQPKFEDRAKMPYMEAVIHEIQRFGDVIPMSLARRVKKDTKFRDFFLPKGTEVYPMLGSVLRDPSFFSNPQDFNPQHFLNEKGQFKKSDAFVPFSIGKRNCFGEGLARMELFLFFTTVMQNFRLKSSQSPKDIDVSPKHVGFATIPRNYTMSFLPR
Nature of the data set: Mechanism based inhibition of human cytochrome P450 2A6 measured by coumarin 7-hydroxylation. It is filed as ADME.

A further data set addresses Cytochrome P450 2C19 (Homo sapiens, UniProt P33261). In words: Mechanism based inhibition of human cytochrome P450 2C19 evaluated using Tolbutamide. It is filed as ADME.
The target of data set [8] is T5, Cytochrome P450 2C8 (Homo sapiens, UniProt P10632).
T5 sequence (P10632 whole entry): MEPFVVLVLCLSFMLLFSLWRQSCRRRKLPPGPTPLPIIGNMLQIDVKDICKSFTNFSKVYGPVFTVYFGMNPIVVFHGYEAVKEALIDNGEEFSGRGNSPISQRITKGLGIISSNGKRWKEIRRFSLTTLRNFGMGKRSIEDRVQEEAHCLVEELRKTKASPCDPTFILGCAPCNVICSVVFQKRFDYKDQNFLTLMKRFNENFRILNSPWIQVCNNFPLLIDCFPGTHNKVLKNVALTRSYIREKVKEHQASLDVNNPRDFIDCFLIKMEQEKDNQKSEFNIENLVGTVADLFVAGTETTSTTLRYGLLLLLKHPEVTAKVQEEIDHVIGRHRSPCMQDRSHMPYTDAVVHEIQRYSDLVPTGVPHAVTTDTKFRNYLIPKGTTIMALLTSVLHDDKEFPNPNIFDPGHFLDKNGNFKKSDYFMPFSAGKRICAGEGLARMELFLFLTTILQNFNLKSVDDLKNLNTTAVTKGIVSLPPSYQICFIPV
Description: Mechanism based inhibition of human cytochrome P450 2C8 measured by paclitaxel hydroxylation using a recombinant system

The target in data set [9] is T5, Cytochrome P450 2C8. Nature of the data set: Mechanism based inhibition of human cytochrome P450 2C8 using human liver microsomes. It is filed as ADME, Microsome.
Another data set concerns the target T6, Cytochrome P450 1A2 (Homo sapiens, UniProt P05177).
T6 sequence (P05177 whole entry): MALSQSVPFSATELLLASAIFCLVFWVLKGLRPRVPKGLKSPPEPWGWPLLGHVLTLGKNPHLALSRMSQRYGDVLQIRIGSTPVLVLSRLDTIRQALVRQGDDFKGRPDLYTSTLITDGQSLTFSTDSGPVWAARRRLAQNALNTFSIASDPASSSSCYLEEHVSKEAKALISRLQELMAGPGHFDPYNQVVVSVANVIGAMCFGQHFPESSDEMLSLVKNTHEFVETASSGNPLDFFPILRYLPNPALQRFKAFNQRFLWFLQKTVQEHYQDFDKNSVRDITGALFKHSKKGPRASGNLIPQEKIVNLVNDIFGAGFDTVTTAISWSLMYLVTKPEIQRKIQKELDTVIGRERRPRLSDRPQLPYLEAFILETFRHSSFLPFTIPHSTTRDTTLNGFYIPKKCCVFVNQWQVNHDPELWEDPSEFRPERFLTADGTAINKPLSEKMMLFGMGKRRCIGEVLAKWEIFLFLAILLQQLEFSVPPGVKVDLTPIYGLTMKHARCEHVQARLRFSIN
In words: Mechanism based inhibition of human cytochrome P450 1A2 measured by phenacetin O-deethylation (POD). It is filed as ADME.

Data set [10] concerns the target T1, Cytochrome P450 3A4. In words: Mechanism based inhibition of human cytochrome P450 3A4 measured by midazolam hydroxylation in vivo. It is filed as ADME, organism-based.
In data set [11] the target is T1, Cytochrome P450 3A4. Nature of the data set: (§3) Mechanism based inhibition of human cytochrome P450 3A4. It is filed as ADME.
In data set [12] the target is T1, Cytochrome P450 3A4. The description is as §3. It is filed as ADME. This is another data set of the same source.
The target in another data set is Cytochrome P450 2C9 (Homo sapiens, UniProt P11712). In words: Mechanism based inhibition of human cytochrome P450 2C9 measured by tienilic acid 5-hydroxylation. It is filed as ADME.
The target in data set [13] is T7, CYP3A4 (Homo sapiens, UniProt P08684). Nature of the data set: (§4) Mechanism based inhibition of human cytochrome P450 3A4 measured by midazolam 1'-hydroxylation. It is filed as ADME. As to conditions: probe midazolam (1'-hydroxylation).
In data set [14] the target is T1, Cytochrome P450 3A4. The description is as §4. It is filed as ADME.
Data set [15] has as its target T7, CYP3A4. In words: (§5) Mechanism based inhibition of human cytochrome P450 3A4 measured by testosterone 6-beta hydroxylation. It is filed as ADME. As to conditions: human, probe testosterone (6-beta hydroxylation).
The target in data set [16] is T1, Cytochrome P450 3A4. Described as §5. It is filed as ADME.
The target in data set [17] is T2, CYP2D6. Nature of the data set: (§6) Mechanism based inhibition of human cytochrome P450 2D6 measured by […] 1'-hydroxylation. It is filed as ADME. The settings on record: human, probe bufurarol.
The target of data set [18] is T3, Cytochrome P450 2D6. The description is as §6. It is filed as ADME.
Data set [19] deals with T1, Cytochrome P450 3A4. Nature of the data set: Mechanism based inhibition of human cytochrome P450 3A4, partition ratio. It is filed as ADME.

T3 sequence (P10635 whole entry): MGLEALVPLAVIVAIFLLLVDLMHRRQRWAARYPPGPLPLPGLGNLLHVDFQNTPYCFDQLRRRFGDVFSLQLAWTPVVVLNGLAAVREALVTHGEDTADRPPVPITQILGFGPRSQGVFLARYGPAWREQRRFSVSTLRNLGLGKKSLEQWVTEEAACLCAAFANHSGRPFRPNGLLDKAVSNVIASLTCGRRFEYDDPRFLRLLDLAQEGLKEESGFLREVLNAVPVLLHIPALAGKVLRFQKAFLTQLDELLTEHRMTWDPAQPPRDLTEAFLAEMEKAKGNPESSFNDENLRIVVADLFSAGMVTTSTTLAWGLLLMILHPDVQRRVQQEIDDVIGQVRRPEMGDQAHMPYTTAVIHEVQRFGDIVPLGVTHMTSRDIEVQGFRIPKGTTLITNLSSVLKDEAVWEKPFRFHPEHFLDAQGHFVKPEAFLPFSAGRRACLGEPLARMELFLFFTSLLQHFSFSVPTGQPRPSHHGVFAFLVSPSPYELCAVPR
T2 sequence (P10635 whole entry): as above
T1 sequence (P08684 whole entry): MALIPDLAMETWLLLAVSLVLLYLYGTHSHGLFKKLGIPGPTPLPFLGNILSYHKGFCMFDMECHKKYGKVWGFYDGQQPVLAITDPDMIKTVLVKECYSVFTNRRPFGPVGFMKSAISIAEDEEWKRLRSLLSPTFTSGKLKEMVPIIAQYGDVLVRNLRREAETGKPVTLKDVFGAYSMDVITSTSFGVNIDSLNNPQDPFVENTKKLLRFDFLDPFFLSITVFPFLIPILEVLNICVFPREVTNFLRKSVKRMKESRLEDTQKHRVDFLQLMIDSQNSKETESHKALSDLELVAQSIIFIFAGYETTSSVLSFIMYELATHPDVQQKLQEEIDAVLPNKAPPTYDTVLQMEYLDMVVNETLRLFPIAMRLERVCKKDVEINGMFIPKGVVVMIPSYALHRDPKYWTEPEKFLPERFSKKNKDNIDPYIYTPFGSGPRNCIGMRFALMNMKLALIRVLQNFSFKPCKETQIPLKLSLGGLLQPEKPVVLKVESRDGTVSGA
T7 sequence (P08684 whole entry): as above
Cytochrome P450 2C9, sequence (P11712 whole entry): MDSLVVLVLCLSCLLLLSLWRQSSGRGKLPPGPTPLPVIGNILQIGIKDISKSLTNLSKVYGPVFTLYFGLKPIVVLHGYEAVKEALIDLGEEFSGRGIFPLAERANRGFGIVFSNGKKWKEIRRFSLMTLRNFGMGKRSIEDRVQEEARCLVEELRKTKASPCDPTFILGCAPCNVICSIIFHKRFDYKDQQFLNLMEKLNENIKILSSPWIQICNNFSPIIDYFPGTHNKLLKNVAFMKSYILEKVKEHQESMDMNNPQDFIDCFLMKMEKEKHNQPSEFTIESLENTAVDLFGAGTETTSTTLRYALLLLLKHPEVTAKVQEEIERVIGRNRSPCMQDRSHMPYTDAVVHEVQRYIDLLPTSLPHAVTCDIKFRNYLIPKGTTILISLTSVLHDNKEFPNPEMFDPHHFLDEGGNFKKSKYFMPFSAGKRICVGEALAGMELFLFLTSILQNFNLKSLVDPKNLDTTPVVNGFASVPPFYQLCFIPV
Cytochrome P450 2C19, sequence (P33261 whole entry): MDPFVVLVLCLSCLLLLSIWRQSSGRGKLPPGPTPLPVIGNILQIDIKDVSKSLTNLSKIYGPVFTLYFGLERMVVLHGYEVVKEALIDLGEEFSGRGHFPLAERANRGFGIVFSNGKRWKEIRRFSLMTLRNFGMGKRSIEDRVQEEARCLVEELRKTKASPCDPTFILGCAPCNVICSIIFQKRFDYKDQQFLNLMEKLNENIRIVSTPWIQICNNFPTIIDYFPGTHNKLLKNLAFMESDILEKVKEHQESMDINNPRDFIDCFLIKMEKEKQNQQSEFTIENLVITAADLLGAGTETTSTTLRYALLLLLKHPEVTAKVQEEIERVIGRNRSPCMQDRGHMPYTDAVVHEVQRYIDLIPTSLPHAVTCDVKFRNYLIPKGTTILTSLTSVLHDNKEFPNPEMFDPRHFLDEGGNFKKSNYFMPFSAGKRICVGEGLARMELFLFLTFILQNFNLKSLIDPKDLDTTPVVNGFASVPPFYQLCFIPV

With `COCC(=O)O[C@]1(CCN(C)CCCc2nc3ccccc3[nH]2)CCc2cc(F)ccc2[C@@H]1C(C)C` [MIBEFRADIL], the mechanism based inhibition entry at Cytochrome P450 3A4 [1] is listed as “Cytochrome P450 mechanistic inhibitor: PMID 10640508”.
For the molecule `CN/C(=N/CCSCc1nc[nH]c1C)NC#N` [CIMETIDINE], the kinact at CYP2D6 [2] is 0.0005 s⁻¹. The same molecule gave a pKi at Cytochrome P450 2D6 [3] of 4.11.
Take `CNCCN1C(=O)[C@H](OC(C)=O)[C@H](c2ccc(OC)cc2)Sc2ccccc21`: the mechanism based inhibition entry at Cytochrome P450 3A4 [4] is “Cytochrome P450 mechanistic inhibitor: PMID 10454485”.
On to `CCc1nn(CCCN2CCN(c3cccc(Cl)c3)CC2)c(=O)n1CCOc1ccccc1` [NEFAZODONE], for which, on Cytochrome P450 3A4 [5], the mechanism based inhibition entry was “Cytochrome P450 mechanistic inhibitor: PMID 15523046”.
With `CCN(CC1CCN(S(C)(=O)=O)CC1)[C@@H](C)Cc1ccc2c(c1)CCO2`, the kinact on CYP2D6 [6] was 0.38 s⁻¹. This molecule gave a pKi on Cytochrome P450 2D6 [7] of 5.85.
Take `NNC(=O)c1ccncc1` [ISONIAZID]: the pKi is 4.22 at Cytochrome P450 2A6; 5.00 at Cytochrome P450 2C19; 3.43 at Cytochrome P450 2C8 [8]; 3.77 on Cytochrome P450 2C8 [9]; 4.25 on Cytochrome P450 1A2.
Turning to `C#C[C@]1(O)C=C[C@H]2[C@@H]3CCC4=CC(=O)CC[C@@H]4[C@H]3CC[C@@]21CC` [GESTODENE], the mechanism based inhibition result on Cytochrome P450 3A4 [10] was “Cytochrome P450 mechanistic inhibitor: PMID 11012556”; at Cytochrome P450 3A4 [11], “Cytochrome P450 mechanistic inhibitor: PMID 2133086”; on Cytochrome P450 3A4 [12] it was “Cytochrome P450 mechanistic inhibitor: PMID 9385444”.
For the molecule `O=C(O)COc1ccc(C(=O)c2cccs2)c(Cl)c1Cl`, at Cytochrome P450 2C9, the mechanism based inhibition result is recorded as “Cytochrome P450 mechanistic inhibitor: PMID 8944768”.
Consider `CC/C(=C(\c1ccccc1)c1ccc(OCCN)cc1)c1ccccc1` [DESMETHYL TAMOXIFEN], for which the kinact on CYP3A4 [13] was 0.00217 s⁻¹; on CYP3A4 [15], 0.00133 s⁻¹. In addition, the results for the pKi at Cytochrome P450 3A4 [14] and at Cytochrome P450 3A4 [16] were 4.92 and 5.59, respectively.
Consider `CC(C)(C)NC(=O)[C@@H]1CN(Cc2cnc3occc3c2)CCN1C[C@@H](O)C[C@@H](Cc1ccccc1)C(=O)N[C@H]1c2ccccc2C[C@H]1O`, for which the kinact at CYP2D6 [17] is 0.003 s⁻¹; on CYP3A4 [15], 0.027 s⁻¹. Besides, the values for the pKi at Cytochrome P450 2D6 [18] and on Cytochrome P450 3A4 [16] were 4.49 and 5.12, respectively. In addition, the results for the mechanism based inhibition entry on Cytochrome P450 3A4 [16] and at Cytochrome P450 3A4 [12] were “Cytochrome P450 mechanistic inhibitor: PMID 8531125” and “Cytochrome P450 mechanistic inhibitor: PMID 10757976”, respectively. Besides, the Partition ratio on Cytochrome P450 3A4 [19] was 1.4.

In general, kinact refers to the rate constant of inactivation at saturating inhibitor. For orientation: pKi means the negative decadic logarithm of the Ki, by convention in mol/L. The low end stands for a high Ki, the high end for a low Ki.
